The values below come from patent US8247429B2, “Tricyclic compound and pharmaceutical use thereof” (Takeda Pharmaceutical Company Limited, priority 2006, dated 2012).

In series [1] the target is T1, human melatonin 1 receptors (human MT1 receptors) (Homo sapiens, UniProt P48039).
T1 construct: expressed in transfected cells; membrane fraction used
Briefly: Melatonin receptor binding inhibitory test (2-[125I] Iodomelatonin), MT1. To be noted: membrane fraction of CHO-hMelR7 cells, 25° C. for 2.5 hr. On the procedure:
(§1) Melatonin receptor binding inhibitory test
(1) Preparation of CHO-hMelR7 Cells Expressing Human Melatonin 1 Receptors
A cDNA fragment (SEQ ID NO: 1) encoding full-length of human melatonin 1 receptors (human MT1 receptors) was incorporated into expression vector pAKKO-111H (former name pAKKO1.11H; Biochim Biophys Acta. Vol. 1219(2), pp. 251-259, 1994) to give plasmid pAKKO-hMelR7 for animal cell expression. CHO/dhfr-cells (ATCC, #CRL-9096) were plated at a concentration of 0.3×10^6 cells/dish in a 6 cm culture dish (Becton Dickinson), and cultured under the conditions of 37° C., 5% CO2 for 48 hr. The cells were transfected with pAKKO-hMelR7 plasmid DNA (5 μg) using Cellphect Transfection Kit (Amersham, #27-9268-01). The transfected cells were cultured in Dulbecco's modified Eagle medium (DMEM) (Sigma, #D6046) containing 10% dialyzed FBS (Biowest, #S180D), 1× Non-Essential Amino Acid (Invitrogen, #11140-050) and 50 μg/mL Gentamycin (Invitrogen, #15750-060), and the cell line that stably expressed the plasmid gene was selected. By a receptor binding assay using 2-[^125I] Iodomelatonin, CHO-hMelR7 cell line showing specific binding of 2-[^125I] Iodomelatonin was selected from the obtained clones.
(§2) (3) Preparation of Cellular Membrane Fraction of CHO Cell (CHO-hMelR7 and CHO-hMT2) Stably Expressing Human MT1 and MT2 Receptors
(§3) CHO-hMelR7 and CHO-hMT2 cells were plated using Cellfactory (Nunc, #170009) under the conditions of 1×10^8 cells/2000 mL/flask. The cells were grown to confluent, and recovered by the following method. As the medium for CHO-hMelR7 and CHO-hMT2, MEM α containing 10% FBS and penicillin/streptomycin was used. […] of geneticin was added to the medium for CHO-hMT2.
(§4) The medium was discarded, cells were washed twice with 200 mL of EDTA/PBS(−), 200 mL of EDTA/PBS(−) was further added, and the cells were stood still at room temperature for 20 min until they were released. The cells were recovered in four 50 mL tubes (Becton Dickinson, #352070), and centrifuged at 1,500 rpm for 10 min at 4° C. using a low speed cooling centrifuge (Hitachi, CF7D2). The supernatant was discarded, the pellets in the four tubes were suspended in 10 mL of PBS(−), and combined in one tube (Becton Dickinson, #352070). The mixture was further centrifuged at 1,500 rpm for 10 min at 4° C., and the obtained pellets were suspended in 20 mL of ice-cooled homogenizing buffer [10 mM NaHCO3, 5 mM EDTA, Protease inhibitor Complete (Roche), pH 7.4]. The cell suspension was homogenized 3 times using a polytron homogenizer at 20,000 rpm for 30 sec. The obtained homogenate was centrifuged (2,000 rpm, 10 min, 4° C.) using a low speed cooling centrifuge. The supernatant was recovered in an ultracentrifugation tube and ultracentrifuged (40,000 rpm, 60 min, 4° C.) using an ultracentrifuge (Beckman, L-90K). To the obtained pellets was added a suspending buffer [50 mM Tris-HCl, 1 mM EDTA, Protease inhibitor Complete (Roche), pH 7.4], and the pellets were suspended by pipetting. The protein concentration of this suspension was measured, diluted to 2 mg/mL to give cellular membrane fractions of CHO-hMelR7 and CHO-hMT2 cells. The membrane fractions were dispensed to 1.5 mL tubes (Eppendorf, #0030120.086) by 100 μL, preserved in a freezer (−80° C.) and used for a binding assay. Protein was quantified using BCA protein assay kit (Pierce) with BSA as the standard.
(§5) (4) Preparation of Membrane Fraction Suspension
(§6) Immediately before use, the membrane fractions of CHO-hMelR7 and CHO-hMT2 cells of the above-mentioned (3) were diluted 20-fold with assay buffer (50 mM Tris-HCl, pH 7.7).
(§7) (5) Preparation of 2-[^125I] Iodomelatonin Solution
(§8) 2-[^125I] Iodomelatonin (#NEX236, PerkinElmer) was diluted with the assay buffer to 400 pM for MT1 and 1 nM for MT2.
(§9) The assay buffer (80 μL) of the above-mentioned (4) was added to each well of a 96-well plate (type 3363, Corning). […]

Series [2] concerns the target T2, human melatonin 2 receptors (human MT2 receptors) (Homo sapiens, UniProt P49286).
T2 construct: expressed in transfected cells; membrane fraction used
T2 sequence (P49286 1-362): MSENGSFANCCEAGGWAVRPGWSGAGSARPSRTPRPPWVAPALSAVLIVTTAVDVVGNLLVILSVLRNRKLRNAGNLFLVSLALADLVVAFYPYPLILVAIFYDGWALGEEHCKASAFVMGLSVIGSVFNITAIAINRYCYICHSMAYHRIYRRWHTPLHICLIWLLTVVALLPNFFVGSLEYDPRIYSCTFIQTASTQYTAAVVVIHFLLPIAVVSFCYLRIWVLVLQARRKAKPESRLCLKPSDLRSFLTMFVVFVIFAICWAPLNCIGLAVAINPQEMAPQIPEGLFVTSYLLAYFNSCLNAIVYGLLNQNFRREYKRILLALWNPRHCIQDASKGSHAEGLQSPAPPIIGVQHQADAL
Briefly: Melatonin receptor binding inhibitory test (2-[125I] Iodomelatonin), MT2. To be noted: membrane fraction of CHO-hMT2 cells, 25° C. for 2.5 hr. The protocol: as §1
(2) Preparation of CHO-hMT2 Cells Expressing Human Melatonin 2 Receptors
A cDNA fragment (SEQ ID NO: 2) encoding full-length of human melatonin 2 receptors (human MT2 receptors) was incorporated into expression vector pCMV-Script (Stratagene, #212220) to give the plasmid that was pCMV-human MT2 receptors expression vector for animal cell expression. CHO-K1 cells (ATCC, #CCL-61) were plated at the concentration of 1.5×10^5 cells/cm^2 in a 6 well plate (ASAHI TECHNO GLASS), and cultured under the conditions of 37° C., 5% CO2 for 24 hr. For gene transfection, solution obtained by blending pCMV-human MT2 receptors expression vector (1.9 μg), Lipofectamine Transfection Reagent (Invitrogen, #18324-012) (11.3 μL) and Minimum Essential Medium Eagle (MEM) medium (Sigma, M8042) (93.8 μL), and reacting at room temperature for 20 min was added to the cells per one well. The transfected cells were cultured in MEM medium containing 10% FBS (Life Technology) and 300 μg/mL Geneticin (GIBCO, #10131), and the cell line that stably expressed the plasmid gene was selected. By a receptor binding assay using 2-[^125I] Iodomelatonin, CHO-hMT2 cell line showing specific binding of 2-[^125I] Iodomelatonin was selected from the obtained clones.
as §2, §3, §4, §5, §6, §7, §8, §9

T1 sequence (P48039 whole entry): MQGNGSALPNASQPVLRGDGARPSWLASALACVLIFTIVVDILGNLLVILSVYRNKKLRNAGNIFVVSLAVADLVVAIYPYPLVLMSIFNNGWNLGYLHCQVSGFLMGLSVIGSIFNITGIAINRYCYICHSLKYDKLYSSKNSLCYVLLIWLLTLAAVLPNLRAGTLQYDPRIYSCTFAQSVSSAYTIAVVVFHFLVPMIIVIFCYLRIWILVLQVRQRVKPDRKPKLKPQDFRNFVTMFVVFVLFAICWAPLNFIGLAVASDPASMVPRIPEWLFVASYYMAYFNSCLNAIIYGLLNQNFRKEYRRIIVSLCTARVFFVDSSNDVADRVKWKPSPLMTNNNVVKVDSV

A word on the melting point: it is the temperature of the solid-liquid transition. Usually IC50 stands for the concentration needed to halve the response being measured. For `CC(=O)NCC[C@@H]1CCc2ccc3nn(C)c(F)c3c21` [Example 23, N-{2-[(8S)-1-fluoro-2-methyl-2,6,7,8-tetrahydrocyclopenta[e]indazol-8-yl]ethyl}acetamide], the melting point was in the range of 155 to 156 °C. Besides, in series [1], the IC50 was ≤ 100 nM. Also, the IC50 in series [2] is ≤ 100 nM.
`CC(=O)NCC[C@@H]1CCc2ccc3nn(C)c(Cl)c3c21` [Example 24, N-{2-[(8S)-1-chloro-2-methyl-2,6,7,8-tetrahydrocyclopenta[e]indazol-8-yl]ethyl}acetamide] showed a melting point of 168 to 171 °C. Moreover, the IC50 in series [1] is ≤ 100 nM. Further, the IC50 in series [2] was ≤ 100 nM.
`CC(=O)NCCC1CCc2c(F)cc3nn(C)cc3c21` (stereo not drawn) [Example 28, N-[2-(5-fluoro-2-methyl-2,6,7,8-tetrahydrocyclopenta[e]indazol-8-yl)ethyl]acetamide] showed a melting point of 116 to 119 °C. Also, the IC50 in series [1] is ≤ 100 nM. Also, the IC50 in series [2] is ≤ 100 nM.
`CCC(=O)NCCC1CCc2c(F)cc3nn(C)cc3c21` (stereo not drawn) [Example 29, N-[2-(5-fluoro-2-methyl-2,6,7,8-tetrahydrocyclopenta[e]indazol-8-yl)ethyl]propanamide]: the melting point lay within 117 to 119 °C. For the same compound, the concentration for half-maximal inhibition (IC50) in series [1] was ≤ 100 nM. Also, the IC50 in series [2] is ≤ 100 nM.
The compound `CC(=O)NCC=C1CCc2c(Cl)cc3nn(C)cc3c21` [Example 30, N-[2-(5-chloro-2-methyl-6,7-dihydrocyclopenta[e]indazol-8(2H)-ylidene)ethyl]acetamide] returned a melting point of 177 to 178 °C. Besides, the IC50 in series [1] is ≤ 100 nM. Besides, the IC50 in series [2] is ≤ 100 nM.
With `CC(=O)NCCC1CCc2c(Cl)cc3nn(C)cc3c21` (stereo not drawn) [Example 31, N-[2-(5-chloro-2-methyl-2,6,7,8-tetrahydrocyclopenta[e]indazol-8-yl)ethyl]acetamide], the melting point lay in the range of 143 to 144 °C. Besides, the IC50 in series [1] was ≤ 100 nM. Also, in series [2], the 50% inhibitory concentration (IC50) was ≤ 100 nM.
Consider `Cc1cc2c3c(ccn2n1)CCC3CCNC(=O)C1CC1` (stereo not drawn) [Example 33, N-[2-(2-methyl-8,9-dihydro-7H-cyclopenta[c]pyrazolo[1,5-a]pyridin-9-yl)ethyl]cyclopropanecarboxamide], for which the melting point was 112 to 113 °C. Further, the IC50 in series [1] is ≤ 100 nM. Further, the IC50 in series [2] is ≤ 100 nM.
